These are literature values, as cited in patent US6465677B1, “Method for the preparation of N-neohexyl-α-aspartyl-L-phenylalanine methyl ester from imidazolidin-4-one intermediates” (The NutraSweet Company, priority 1998, dated 2002).

Structures are written as SMILES.

For the data set the following is noted: on a weight basis.

For `COC(=O)[C@H](Cc1ccccc1)NC(=O)[C@H](CC(=O)O)NCCC(C)(C)C` [neotame, N-[N-(3,3-dimethylbutyl)-L-α-aspartyl]-L-phenylalanine 1-methyl ester], the “sweetness relative to sucrose” value is listed as “approximately 8,000 times as sweet as sucrose”.
